Laboratory results from the supplement of paper PMC4862054.

How the values were obtained:
Experiment in all cases: normalised response (% of control), CellTox Green; higher = less cell death (100 = DMSO, 0 = benzethonium chloride kill control)
Conditions in all cases: incubation time: 72 h
MFM-223 = system: MFM-223
Procedure, shortened: (§1)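 Two readouts were taken after 72 h: CellTox Green fluorescence (485/520 nm) first, then CellTiter-Glo luminescence after 10 min at room temperature. Breast cancer cell lines had been seeded as 20 µl suspension into 384-well plates holding compound at 5 concentrations in 10-fold steps across a compound-specific 10,000-fold range. Each value is a normalised signal at a single concentration, with plates scaled to 0.1 % DMSO (100) and a positive kill control (0).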

HDQ-P1 = system: HDQ-P1
Procedure, shortened: as §1

MDA-MB-436 = system: MDA-MB-436
Procedure, shortened: as §1

CAL-85-1 = system: CAL-85-1
Procedure, shortened: as §1

HCC1143 = system: HCC1143
Procedure, shortened: as §1

CAL-148 = system: CAL-148
Procedure, shortened: as §1

BT-549 = system: BT-549
Procedure, shortened: as §1

HCC1599 = system: HCC1599
Procedure, shortened: as §1

HCC1937 = system: HCC1937
Procedure, shortened: as §1

CAL-51 = system: CAL-51
Procedure, shortened: as §1

Hs578T = system: Hs578T
Procedure, shortened: as §1

SMILES	normalised response (MFM-223)	normalised response (HDQ-P1)	normalised response (MDA-MB-436)	normalised response (CAL-85-1)	normalised response (HCC1143)	normalised response (CAL-148)	normalised response (BT-549)	normalised response (HCC1599)	normalised response (HCC1937)	normalised response (CAL-51)	normalised response (Hs578T)
COc1cc(OC2CCN(C)CC2)ccc1Nc1ncc2c(n1)n(C1CCCC1)c(=O)n2C [AZ 3146] (10000 nM)	104%	86.1%	47.3%	82.7%	86.7%	60.4%	105%	53.3%	-6.06%	27.1%	98.7%
CO[C@H]1C[C@@H]2CC[C@@H](C)[C@@](O)(O2)C(=O)C(=O)N2CCCC[C@H]2C(=O)O[C@H]([C@H](C)C[C@@H]2CC[C@@H](OP(C)(C)=O)[C@H](OC)C2)CC(=O)[C@H](C)/C=C(\C)[C@@H](O)[C@@H](OC)C(=O)[C@H](C)C[C@H](C)/C=C/C=C/C=C/1C [Ridaforolimus] (100 nM)	102%	70.1%	53.1%	92.7%	121%	85.5%	125%	89.3%	103%	102%	116%
C=C1C[C@@H]2[C@H](CC[C@]3(C)C(=O)CC[C@@H]23)[C@@]2(C)C=CC(=O)C=C12 [Exemestane] (10000 nM)	86.2%		90%	71.2%	112%	106%	81.2%	112%	115%	103%	117%
Oc1ccc2c(c1)CC[C@H](c1ccccc1)[C@@H]2c1ccc(OCCN2CCCC2)cc1 [Lasofoxifene] (100 nM)		66%	104%	82.2%		62.9%	113%	95.2%	113%	123%	84.9%
N#Cc1ccc(COC[C@H]2O[C@@H](n3c(NCc4ccc(Cl)c(Cl)c4)nc4c(N)ncnc43)[C@H](O)[C@@H]2O)cc1 (10000 nM)	2.84%	110%	87.8%		79.2%	95.2%	111%	109%	106%	91.6%	120%
COc1cc2ncnc(Nc3ccc(F)c(Cl)c3)c2cc1OCCCN1CCOCC1 [Gefitinib] (10000 nM)	104%	94.9%	98.4%	45.8%	113%	48.3%	114%	96.9%	98.2%	104%	102%
Cc1[nH]c2ccccc2c1CCNCc1ccc(/C=C/C(=O)NO)cc1 [Panobinostat] (100 nM)	71.4%	90%	10.6%	10.4%	71.8%	-4.89%	105%	75%	-55.9%	-3.76%	-15.2%
CN(C)CCOc1ccc(/C(=C(/CCCl)c2ccccc2)c2ccccc2)cc1 [Toremifene] (1000 nM)	92.4%		70.4%	106%	118%	89.1%	99.3%	95.5%	110%	102%	55.3%
O=P1(N(CCCl)CCCl)NCCCO1 (centres undefined) [Cyclophosphamide] (40000 nM)	102%	107%	105%	92.4%	71.3%	102%	100%	107%	102%	105%	50.5%
O=C(Nc1ccncc1)C(=O)c1cn(Cc2ccc(Cl)cc2)c2ccccc12 [Indibulin] (1000 nM)	71.8%	107%	80.4%	48.8%	93.6%	96.3%	117%	104%	68.1%	40.5%	94.6%
C=C1C[C@@H]2[C@H](CC[C@]3(C)C(=O)CC[C@@H]23)[C@@]2(C)C=CC(=O)C=C12 [Exemestane] (1000 nM)	100%	116%	95.1%	99%	108%	96.9%	113%	108%	121%	106%	
CCc1c2c(nc3ccc(OC(=O)N4CCC(N5CCCCC5)CC4)cc13)-c1cc3c(c(=O)n1C2)COC(=O)[C@]3(O)CC [Irinotecan] (10000 nM)	103%	74.4%	97.1%	64.6%	95.2%	44.4%	107%	87%	55.9%	-10.4%	104%
CC(C)C[C@@H](C(=O)N[C@H](C(=O)OC1CCCC1)c1ccccc1)[C@H](O)C(=O)NO [Tosedostat] (10000 nM)	98.5%	26%	70.6%	-30.8%	30.3%	54.2%	-46.2%	95.4%	76.8%	48.5%	89.8%
NC(=O)c1ccc(I)c([N+](=O)[O-])c1 [Iniparib] (10000 nM)	95.6%		77.5%	142%		101%	113%	100%	107%	83.7%	
COc1cc(OC2CCN(C)CC2)ccc1Nc1ncc2c(n1)n(C1CCCC1)c(=O)n2C [AZ 3146] (1000 nM)	101%	99.6%	86%	103%	87.6%	90.9%	120%	92.5%	88.2%	51.4%	97.5%
CC(C)C[C@@H](C(=O)N[C@H](C(=O)OC1CCCC1)c1ccccc1)[C@H](O)C(=O)NO [Tosedostat] (1000 nM)	31.9%	57.9%	75.5%	1.91%	105%	84.1%	70.1%	90.8%	90.1%	52.9%	89%
O=C(Nc1cccnc1)N1CCC(Cc2cccc(Oc3ccc(C(F)(F)F)cn3)c2)CC1 [PF-3845] (10000 nM)	78.1%	52.3%	101%	69.5%	126%	103%	111%	95.7%	76.2%	108%	90.3%

SMILES	normalised response (MFM-223)	normalised response (HDQ-P1)	normalised response (MDA-MB-436)	normalised response (CAL-85-1)	normalised response (HCC1143)	normalised response (CAL-148)	normalised response (BT-549)	normalised response (HCC1599)	normalised response (HCC1937)	normalised response (CAL-51)	normalised response (Hs578T)
COc1cc2ncnc(Nc3ccc(F)c(Cl)c3)c2cc1OCCCN1CCOCC1 [Gefitinib] (1000 nM)	65.4%	84.8%	91.5%	79.5%	83.2%	89.8%	123%	97.8%	123%	108%	95.9%
O=P1(N(CCCl)CCCl)NCCCO1 (centres undefined) [Cyclophosphamide] (4000 nM)	94.8%	112%	97.3%	100%		104%	98.7%	105%	124%	112%	62.1%
CN(C)CCOc1ccc(/C(=C(/CCCl)c2ccccc2)c2ccccc2)cc1 [Toremifene] (10000 nM)	94.7%	103%	91.7%	79.9%		59.6%	82%	80.3%	-3.77%	104%	103%
CNC(=O)c1cc(Oc2ccc(NC(=O)Nc3ccc(Cl)c(C(F)(F)F)c3)c(F)c2)ccn1 [Regorafenib] (10000 nM)	97.3%	111%	113%	83.8%	120%	85.1%	109%	106%	10.5%	108%	109%
Cc1ccc(NC(=O)c2ccc(CN3CCN(C)CC3)cc2)cc1Nc1nc(-c2cccnc2)cs1 [Masitinib] (10000 nM)	96.5%	106%	31.8%	76.8%	96.5%	101%	109%	67.6%	88.7%	74.2%	70.7%
CNC(=O)c1cc(Oc2ccc(NC(=O)Nc3ccc(Cl)c(C(F)(F)F)c3)c(F)c2)ccn1 [Regorafenib] (1000 nM)	102%	97.6%	108%	103%		103%	116%	103%	122%	87.7%	110%
O=C(/C=C/c1cccc(S(=O)(=O)Nc2ccccc2)c1)NO [Belinostat] (1000 nM)	78.5%	103%	79.3%	51.1%	100%	66.4%	129%	86.1%	117%	50.8%	77.3%
c1ccc2c(CCNc3ccc(Nc4ccncc4)cc3)c[nH]c2c1 [Serdemetan] (10000 nM)	38.8%	88.7%	99.5%	94%	89.7%	26%	86.7%	82.8%	102%	69.5%	118%
O=C(Nc1cccnc1)N1CCC(Cc2cccc(Oc3ccc(C(F)(F)F)cn3)c2)CC1 [PF-3845] (1000 nM)	102%	70.8%	108%	106%	97.7%	107%	107%	108%	124%	117%	115%
Cc1ccc(NC(=O)c2ccc(CN3CCN(C)CC3)cc2)cc1Nc1nc(-c2cccnc2)cs1 [Masitinib] (1000 nM)	89.7%	89.1%	68.7%	98.9%	99.5%	97.3%	110%	101%	113%	103%	97.8%
CN(C)c1nc(N(C)C)nc(N(C)C)n1 [Altretamine] (10000 nM)	96.6%	94.3%	97.5%	87.6%	109%	91%	97.2%	103%	104%	109%	112%
CCc1c2c(nc3ccc(OC(=O)N4CCC(N5CCCCC5)CC4)cc13)-c1cc3c(c(=O)n1C2)COC(=O)[C@]3(O)CC [Irinotecan] (1000 nM)	101%	93.7%	44.5%	93.1%	96.6%	29.8%	121%	99.1%	123%	61.9%	81.9%
Oc1ccc2c(c1)CC[C@H](c1ccccc1)[C@@H]2c1ccc(OCCN2CCCC2)cc1 [Lasofoxifene] (1000 nM)	95.5%	86.1%	109%	69.3%	112%	103%	118%	111%	72.2%	105%	68.7%
COc1cc2/c(=N/c3ccc(Br)cc3F)nc[nH]c2cc1OCC1CCN(C)CC1 [Vandetanib] (1000 nM)	95%	40.1%	84.6%	117%	85.7%	99.8%	114%	106%	84.1%	96.5%	105%
CN(C)c1nc(N(C)C)nc(N(C)C)n1 [Altretamine] (1000 nM)	99.7%	69.2%	80.3%	102%	113%	101%	107%	90.7%	118%	111%	98.1%
c1ccc2c(CCNc3ccc(Nc4ccncc4)cc3)c[nH]c2c1 [Serdemetan] (1000 nM)	97.8%	99.7%	81.8%	102%		73.4%	124%	89.1%		-44.2%	92.3%
COCC1(CO)C(=O)C2CCN1CC2 (centres undefined) [Prima-1 Met] (10000 nM)	93.1%	102%	62.3%	74.2%	93%	99.3%	63.4%	108%		115%	117%
